From patent US8404866B2, “Substituted heterocyclic mercaptosulfonamide metalloprotease inhibitors” (Florida State University Research Foundation, priority 2008, dated 2013)
Where a name gives a salt, the structure may show the parent alone.

Tests used:
[1] = test system: human mesenchymal stem cells (hMSC); test: MMPI cytotoxicity / growth of hMSC (trypan blue count); format: cell-based; conditions: 1 nM to 100 μM, 24 hours
Description: Passage 3 human adult bone marrow-derived mesenchymal stem cells (hMSCs, Tulane Center for Gene Therapy) were plated for a recovery phase of 24 hours at 37° C. and 5% CO2 in Alpha Minimum Essential Medium (αMEM, Sigma Aldrich) containing L-glutamine but without ribonucleosides or deoxyribonucleosides, 16.5% FBS, ˜2-4 mM L-glutamine, and penicillin and streptomycin as antibiotics. After the recovery phase, hMSCs were seeded into 6-well plates at a density of ˜60 cells/cm^2 within each well containing 2 mL of cell culture medium. Fresh cell culture medium was added every 3 days until the cells reached a confluency of approximately ˜70% at which media was changed to the conditioned forms necessary for observing MMPI cytotoxicity.
(§1) Upon reaching the desired confluency, each cell type was treated with the respective fresh media that was conditioned with a logarithmic panel of MMPI concentrations ranging from 1 nM to 100 μM. Specifically, each of the inhibitors were dissolved in an appropriate amount of 100% EtOH to generate 8 mM stock solutions from which an aliquot was used to produce serial dilutions with either SmBm or αMEM. The conditioned media was added to either hCASMCs or hMSCs and incubated for 24 hours. […] In order to quantify the levels of toxicity these inhibitors had on hCASMC and hMSC growth and viability, the cells were treated with trypan blue and counted via a hemocytometer. […]

[2] = test system: human coronary artery smooth muscle cells (hCASMC); test: MMPI cytotoxicity / growth of hCASMC (trypan blue count); format: cell-based; conditions: 24 hours
Description: Passage 7 human coronary artery smooth muscle cells (hCASMCs) were plated in a 10 cm dish containing 20 mL of smooth muscle basal medium (SmBm, Lonza, Cat. No. CC-3182) supplemented with 0.1% insulin, 0.1% epidermal growth factor (rhEGF), 0.2% fibroblast growth factor-B (rhFGF-B), 0.1% gentamicin/amphotericin (antibiotics), and 5% FBS. The cells were incubated for 24 hours at 37° C. and 5% CO2, with 20 mL of fresh SmBm added the following day. Fresh SmBm was added every 2 days until the culture was ˜70-80% confluent and contained a minimum of 5 mitotic figures when viewed at 100× magnification. At this time, cells were then trypsinized and seeded into 24-well plates at an initial density of 3,500 cells/cm^2 and grown to ˜60% confluence prior to MMPI treatment.
as §1, with “αMEM.” for “αMEM. The conditioned media was added to either hCASMCs or hMSCs and incubated for 24 hours.”

[3] = test system: human brain microvascular endothelial cells (hBMECs); test: Endothelial cell migration and wound-healing assay; format: cell-based; conditions: at 3 μM and above, 24 hours
Description: Culture of human brain microvascular endothelial cells: Human brain microvascular endothelial cells (hBMECs) were cultured with EGM-2MV Microvascular Endothelial Cell Medium-2 1 kit Bullet Kit, 5% fetal bovine serum, with or without treatments with synthetic matrix metalloproteinase inhibitors (MMPIs), at 37° C. and 5% CO2.
Endothelial cell migration and wound-healing assays: All experiments for this phase were performed in triplicate, and each consisted of […] wounded cultures utilizing serial concentrations of MMPIs: (1) an untreated control; (2) 100 μM MMPI; (3) 30 μM MMPI; (4) 10 μM MMPI; (5) 3 μM MMPI; (6) 1 μM MMPI; (7) 100 nM MMPI; (8) 10 nM MMPI; and (9) 1 nM MMPI. A 1 mL pipette tip was utilized to create a linear wound in a confluent monolayer of hBMECs. A fine, sterile needle was used to demarcate a cell-free “wounded field”. All cultures were photographed at that time. After 24 hours, the wounded cell culture was washed three times with phosphate buffered saline, fixed with 4% paraformaldehyde for 10-20 min, and stained with 0.1% crystal violet for 10-20 min. The stained culture was washed with ddH2O three times and left overnight to air dry. […] The density of the cell coverage in the wounded field was quantified utilizing the integrated morphometry analysis (IMA) (Metamorph System v.4.6r8, University Imaging Corp.). […]

For CN([C@H]1CN(C(N)=O)C[C@@H]1S)S(=O)(=O)c1ccc(Oc2ccccc2)cc1 (racemic) [Example 4, (±)-N-Carbamoyl-trans-3-(N-methyl-4-phenoxybenzenesulfonamido)-4-mercaptopyrrolidine], the hMSC growth curve [1] was “steadily increased as the concentration of YHJ-7-23 was decreased” and the hCASMC growth curve ([2]; 1 nM to 100 μM) was “local minimum originating at 300 nM and minimizing at ˜30 nM”.
O=C(OCc1ccccc1)N1C[C@H](NS(=O)(=O)c2ccc(Oc3ccccc3)cc2)[C@@H](S)C1 (racemic) [Example 5, (±)-N-(Benzyloxycarbonyl)-trans-3-(4-phenoxybenzenesulfonamido)-4-mercaptopyrrolidine] showed a melting point of 142 to 143 °C.
For NC(=O)N1C[C@H](NS(=O)(=O)c2ccc(Oc3ccccc3)cc2)[C@@H](S)C1 (racemic) [Example 1, (±)-N-Carbamoyl-trans-3-(4-phenoxybenzenesulfonamido)-4-mercaptopyrrolidine], the “inhibition on hBMEC wound healing” value [3] was “pretty good inhibition”, the melting point was 170 to 171 °C and the hMSC growth curve [1] was “erratic results”.
For O=S(=O)(N[C@H]1CNC[C@@H]1S)c1ccc(Oc2ccccc2)cc1 (racemic) [Example 3, (±)-trans-3-(4-Phenoxybenzenesulfonamido)-4-mercaptopyrrolidine Hydrochloride], the hCASMC growth ([2]; lower concentrations, compared to identical concentrations of YHJ-6-286 and YHJ-7-23) was “increased hCASMC growth nearly two-fold”.
